Experimental data published in US4383113A, “Agricultural sulfonamides” (E. I. Du Pont de Nemours and Company, priority 1981, dated 1983).

Tests used:
morningglory = test: Test A pre-emergence; assay type: in vivo, Ipomoea spp.; parameters: key: 0 = no effect, 10 = maximum effect; letter = response symbol; details: 0.4 kg/ha
In short: (§1)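 Seeds and tubers were treated preemergence in a growth medium with compound in a nonphytotoxic solvent, against untreated controls; emerged plants such as two-leaf barnyardgrass and five-leaf cotton were sprayed postemergence, against solvent-sprayed controls. After sixteen days in a greenhouse, response was rated visually from 0 to 10.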

cassia = test: Test A pre-emergence; assay type: in vivo, Cassia tora; parameters: key: 0 = no effect, 10 = maximum effect; letter = response symbol; details: 0.4 kg/ha
In short: as §1

nutsedge = test: Test A pre-emergence; assay type: in vivo, Cyperus rotundus; details: 0.4 kg/ha
From the text: The activity of these compounds was discovered in a number of greenhouse and field tests. The ratings are based on a numerical scale extending from 0=no effect, to 10=maximum effect. The accompanying descriptive symbols have the following meanings:
Seeds of crabgrass (Digitaria spp.), barnyardgrass (Echinochloa crusgalli), wild oats (Avena fatua), cassia (Cassia tora), morningglory (Ipomoea spp.), cocklebur (Xanthium spp.), sorghum, corn, soybean, rice, wheat and nutsedge tubers (Cyperus rotundus) were planted in a growth medium and treated preemergence with a nonphytotoxic solvent solution of the compounds of Table XII. Other batches of seeds and tubers for all of the foregoing weed and crop plants were planted at the same time as controls. The control plantings were untreated; i.e., neither any compound nor any solvent was applied. At the same time, cotton having five leaves (including cotyledonary ones), bush beans with the third trifoliate leaf expanding, crabgrass with two leaves, barnyardgrass with two leaves, wild oats with two leaves, cassia with three leaves (including cotyledonary ones), morningglory with four leaves (including the cotyledonary ones), cocklebur with four leaves (including the cotyledonary ones), sorghum with four leaves, corn with four leaves, soybean with two cotyledonary leaves, rice with three leaves, wheat with one leaf, and nutsedge with three-five leaves were sprayed with a nonphytotoxic solvent solution of the compounds of Table XII. Other groups of all the same weed and crop plants were sprayed with the same nonphytotoxic solvent so as to provide control plants. Preemergence and postemergence treated plants and controls were maintained in a greenhouse for sixteen days, then all treated plants were compared with their respective controls and rated visually for response to treatment.

crabgrass = test: Test A pre-emergence; assay type: in vivo, Digitaria spp.; parameters: key: 0 = no effect, 10 = maximum effect; letter = response symbol; details: 0.4 kg/ha
In short: as §1

barnyardgrass = test: Test A pre-emergence; assay type: in vivo, Echinochloa crusgalli; parameters: key: 0 = no effect, 10 = maximum effect; letter = response symbol; details: 0.4 kg/ha
In short: as §1

wild oats = test: Test A pre-emergence; assay type: in vivo, Avena fatua; parameters: key: 0 = no effect, 10 = maximum effect; letter = response symbol; details: 0.4 kg/ha
In short: as §1

corn = test: Test A pre-emergence; assay type: in vivo; parameters: key: 0 = no effect, 10 = maximum effect; letter = response symbol; details: 0.4 kg/ha
In short: as §1

rice = test: Test A pre-emergence; assay type: in vivo; parameters: key: 0 = no effect, 10 = maximum effect; letter = response symbol; details: 0.4 kg/ha
In short: as §1

sorghum = test: Test A pre-emergence; assay type: in vivo; parameters: key: 0 = no effect, 10 = maximum effect; letter = response symbol; details: 0.4 kg/ha
In short: as §1

soybean = test: Test A pre-emergence; assay type: in vivo; parameters: key: 0 = no effect, 10 = maximum effect; letter = response symbol; details: 0.4 kg/ha
In short: as §1

wheat = test: Test A pre-emergence; assay type: in vivo; parameters: key: 0 = no effect, 10 = maximum effect; letter = response symbol; details: 0.4 kg/ha
In short: as §1

cocklebur = test: Test A pre-emergence; assay type: in vivo, Xanthium spp.; parameters: key: 0 = no effect, 10 = maximum effect; letter = response symbol; details: 0.4 kg/ha
In short: as §1

purple nutsedge [1] = test: Test F soil surface spray; assay type: in vivo, Cyperus rotundus
From the text: (§2) Purple nutsedge tubers (Cyperus rotundus) were planted about 2 cm deep in Fallsington silt loam contained in plastic pots 10 cm in diameter. Five tubers were put in each pot. Compounds of this invention were sprayed dissolved in a non-phytotoxic solvent at a volume rate of 560 l/ha. in four different methods of treatment, i.e., soil surface spray, tuber/soil spray, soil incorporated and post-emergence. For the soil surface spray, the compounds were sprayed on the firmed soil surface immediately after planting. For the tuber/soil spray, the compounds were sprayed on the exposed tubers and subtending soil before the untreated covering soil was added. Soil incorporation treatments were mixed in the covering soil. Post-emergence treatments were sprayed on the nutsedge foliage and surrounding soil surface after the nutsedge had emerged and had reached the height of about 12 cm.
(§3) Immediately after spraying the surface spray, tuber/soil spray and soil incorporated treatments were misted with about 0.3 cm of water over a 90 minute period and then placed in the greenhouse. Post-emergence treatments were placed directly into the greenhouse and watered carefully so that treatments would not be washed from the foliage.

purple nutsedge [2] = test: Test F tuber/soil spray; assay type: in vivo, Cyperus rotundus
From the text: as §2, §3

purple nutsedge [3] = test: Test F soil incorporated; assay type: in vivo, Cyperus rotundus
From the text: as §2, §3

purple nutsedge [4] = test: Test F post-emergence; assay type: in vivo, Cyperus rotundus
From the text: as §2, §3

broadleaves = test: Test K field post-emergence; assay type: in vivo; details: 16 weeks
Experimental: (§4) The response of a number of noxious weed species to post-emergence applications of the same compound as used in Test J was studied in another field test. At the time of treatment, one month after mowing, the mixed vegetation was approximately 15 cm tall. The chemical was applied in water containing 0.2% of Surfactant WK® at an overall volume of 500 l/ha. Each treatment was replicated three times. Approximately 5 cm of rainfall was recorded 4 days after treatment and an additional 37 cm fell before weed control ratings were made 16 weeks after treatment.

broomsedge = test: Test K field post-emergence; assay type: in vivo; details: 16 weeks
Experimental: as §4

dewberry = test: Test K field post-emergence; assay type: in vivo; details: 16 weeks
Experimental: as §4

golden rod = test: Test K field post-emergence; assay type: in vivo; details: 16 weeks
Experimental: as §4

grasses = test: Test K field post-emergence; assay type: in vivo; details: 16 weeks
Experimental: as §4

[5] = tested on: mixed vegetation, overall; test: Test K field post-emergence; assay type: in vivo; details: 16 weeks
Experimental: as §4

poison ivy = test: Test K field post-emergence; assay type: in vivo; details: 16 weeks
Experimental: as §4

purpletop = test: Test K field post-emergence; assay type: in vivo; details: 16 weeks
Experimental: as §4

COC(=O)c1ccccc1S(=O)(=O)NC(=O)N(C)c1nc(C)cc(C)n1 [drawing 486]
response rating (morningglory): 0
response rating (cassia): 0
response rating (nutsedge): 0
response rating (crabgrass): 3G
response rating (barnyardgrass): 2G
response rating (wild oats): 0
response rating (corn): 3G
response rating (rice): 8H
response rating (sorghum): 4G
response rating (soybean): 0
response rating (wheat): 4H

CCCCCCCCCCOC(=O)c1ccccc1S(=O)(=O)NC(=O)Nc1nc(OC)nc(OC)n1 [drawing 496]
response rating (morningglory): 4G
response rating (nutsedge): 0
response rating (crabgrass): 0
response rating (barnyardgrass): 0
response rating (wild oats): 0
response rating (corn): 2G
response rating (rice): 0
response rating (sorghum): 2H
response rating (soybean): 1C
response rating (wheat): 0

CCCCCCCCCCOC(=O)c1ccccc1S(=O)(=O)NC(=O)Nc1nc(C)nc(OC)n1 [drawing 497]
response rating (morningglory): 0
response rating (nutsedge): 2G
response rating (crabgrass): 2G
response rating (barnyardgrass): 0
response rating (wild oats): 0
response rating (corn): 4G
response rating (rice): 0
response rating (sorghum): 3G
response rating (soybean): 0
response rating (wheat): 0

CCCC(OC(=O)c1ccccc1S(=O)(=O)NC(=O)Nc1nc(C)nc(OC)n1)C(C)C (stereo not shown) [drawing 525]
response rating (morningglory): 9G
response rating (cocklebur): 8G
response rating (cassia): 8G
response rating (nutsedge): 5G
response rating (crabgrass): 0
response rating (barnyardgrass): 9H
response rating (wild oats): 5G
response rating (corn): 8G
response rating (rice): 9H
response rating (soybean): 9H
response rating (wheat): 3G

COC(=O)c1ccccc1S(=O)(=O)NC(=O)Nc1ncccn1 [drawing 596]
response rating after 4 weeks (purple nutsedge [1]; .032 kg/ha): 0
response rating after 4 weeks (purple nutsedge [2]; .032 kg/ha): 2G
response rating after 4 weeks (purple nutsedge [3]; .032 kg/ha): 0
response rating after 4 weeks (purple nutsedge [4]; .032 kg/ha): 0
response rating after 4 weeks (purple nutsedge [4]; .125 kg/ha): 9C

COC(=O)c1ccccc1S(=O)(=O)NC(=O)Nc1nnc(C)c(C)n1 [drawing 597]
response rating after 4 weeks (purple nutsedge [1]; .032 kg/ha): 2G
response rating after 4 weeks (purple nutsedge [2]; .032 kg/ha): 2G
response rating after 4 weeks (purple nutsedge [3]; .032 kg/ha): 3G
response rating after 4 weeks (purple nutsedge [4]; .032 kg/ha): 0
response rating after 4 weeks (purple nutsedge [4]; .125 kg/ha): 9C
response rating after 4 weeks (purple nutsedge [4]; .5 kg/ha): 10C

COc1nc(NC(=O)NS(=O)(=O)c2ccccc2C(=O)OC(C)C)nc(OC)n1 [drawing 600]
response rating after 4 weeks (purple nutsedge [1]; .004 kg/ha): 8G
response rating after 4 weeks (purple nutsedge [1]; .008 kg/ha): 8G
response rating after 4 weeks (purple nutsedge [2]; .004 kg/ha): 7G
response rating after 4 weeks (purple nutsedge [2]; .008 kg/ha): 8G
response rating after 4 weeks (purple nutsedge [3]; .004 kg/ha): 8G
response rating after 4 weeks (purple nutsedge [3]; .008 kg/ha): 8G
response rating after 4 weeks (purple nutsedge [4]; .004 kg/ha): 8C
response rating after 4 weeks (purple nutsedge [4]; .008 kg/ha): 9C
response rating after 4 weeks (purple nutsedge [4]; .016 kg/ha): 9C
response rating after 4 weeks (purple nutsedge [4]; .032 kg/ha): 10C

COC(=O)c1cc(Cl)ccc1S(=O)(=O)NC(=O)Nc1nc(OC)nc(OC)n1 [drawing 603]
response rating after 4 weeks (purple nutsedge [1]; .008 kg/ha): 3G
response rating after 4 weeks (purple nutsedge [1]; .032 kg/ha): 7G
response rating after 4 weeks (purple nutsedge [1]; .125 kg/ha): 9G
response rating after 4 weeks (purple nutsedge [2]; .008 kg/ha): 4G
response rating after 4 weeks (purple nutsedge [2]; .032 kg/ha): 7G
response rating after 4 weeks (purple nutsedge [2]; .125 kg/ha): 9G
response rating after 4 weeks (purple nutsedge [3]; .008 kg/ha): 5G
response rating after 4 weeks (purple nutsedge [3]; .032 kg/ha): 7G
response rating after 4 weeks (purple nutsedge [3]; .125 kg/ha): 9G
response rating after 4 weeks (purple nutsedge [4]; .008 kg/ha): 3G
response rating after 4 weeks (purple nutsedge [4]; .125 kg/ha): 10C

COC(=O)c1cc(Cl)ccc1S(=O)(=O)NC(=O)Nc1nc(C)cc(OC)n1 [drawing 604]
response rating after 4 weeks (purple nutsedge [1]; .032 kg/ha): 9G
response rating after 4 weeks (purple nutsedge [2]; .008 kg/ha): 7G
response rating after 4 weeks (purple nutsedge [3]; .008 kg/ha): 7G
response rating after 4 weeks (purple nutsedge [4]; .032 kg/ha): 9C
response rating after 4 weeks (purple nutsedge [4]; .125 kg/ha): 9C

COC(=O)c1ccccc1S(=O)(=O)NC(=O)Nc1nc(C)cc(C)n1 [drawing 613]
mean % weed control (broadleaves; 1.0 kg/ha): 96%
mean % weed control (broadleaves; 2.0 kg/ha): 98%
mean % weed control (broadleaves; .5 kg/ha): 91%
mean % weed control (broomsedge; 1.0 kg/ha): 73%
mean % weed control (broomsedge; 2.0 kg/ha): 86%
mean % weed control (broomsedge; .5 kg/ha): 71%
mean % weed control (dewberry; 1.0 kg/ha): 100%
mean % weed control (dewberry; 2.0 kg/ha): 100%
mean % weed control (dewberry; .5 kg/ha): 97%
mean % weed control (golden rod; 1.0 kg/ha): 100%
mean % weed control (golden rod; 2.0 kg/ha): 100%
mean % weed control (golden rod; .5 kg/ha): 100%
mean % weed control (grasses; 1.0 kg/ha): 84%
mean % weed control (grasses; 2.0 kg/ha): 93%
mean % weed control (grasses; .5 kg/ha): 81%
mean % weed control ([5]; 1.0 kg/ha): 90%
mean % weed control ([5]; 2.0 kg/ha): 94%
mean % weed control ([5]; .5 kg/ha): 81%
mean % weed control (poison ivy; 1.0 kg/ha): 85%
mean % weed control (poison ivy; 2.0 kg/ha): 95%
mean % weed control (poison ivy; .5 kg/ha): 67%
mean % weed control (purpletop; 1.0 kg/ha): 80%
mean % weed control (purpletop; 2.0 kg/ha): 92%
mean % weed control (purpletop; .5 kg/ha): 73%
